Experimental data from patent US10987349B2, “Antitumor agent and bromodomain inhibitor” (FUJIFILM Corporation, priority 2016, dated 2021).

Columns and labels:
BRD4 BD1 = target: T1, BRD4 BD1 (Homo sapiens, UniProt O60885); test: Binding assay, BRD4 BD1 to acetylated histone H4 Peptide-Biotin (EPIgeneous Binding Domain Kit A); details: for inhibition at 0.3 µM: test compound at 300 nmol/L, read-out: Binding inhibition percentage BRD4 BD1
T1 construct: BRD2 BD1, BRD3 BD1 and BRD4 BD1 (Cisbio); purchased Cisbio
How it was run: (§1)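 HTRF competition: bromodomain protein (added at 20 nmol/L) and biotinylated tetra-acetyl H4(1-25) peptide (added at 25 nmol/L) were incubated with compound, streptavidin-d2 and anti-GST Eu cryptate for 20 h at room temperature. Inhibition came from the 665/620 nm ratio relative to DMSO; IC50 by four-parameter fit; some compounds were tested only at 300 nmol/L final.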

BRD3 BD2 = target: T2, BRD3 BD2 (Homo sapiens, UniProt Q15059); test: Binding assay, BRD3 BD2 to acetylated histone H4 Peptide-Biotin (EPIgeneous Binding Domain Kit B); details: for inhibition at 0.3 µM: test compound at 300 nmol/L, read-out: Binding inhibition percentage BRD3 BD2
T2 construct: BRD2 BD2, BRD3 BD2 and BRD4 BD2 (Cisbio); purchased Cisbio
T2 sequence (Q15059 306-415 limits assumed): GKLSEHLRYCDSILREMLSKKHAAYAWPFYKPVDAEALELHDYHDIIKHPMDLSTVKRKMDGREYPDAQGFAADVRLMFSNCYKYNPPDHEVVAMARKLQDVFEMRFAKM
How it was run: (§2)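 HTRF binding of GST-tagged BD2 (20 nmol/L working stock) to biotinylated acetyl-histone H4 peptide (250 nmol/L working stock), using streptavidin-XL665 and anti-GST Eu cryptate. Incubated 20 h at room temperature; 665/620 nm ratio versus DMSO gives % inhibition; IC50 by four-parameter fit, or % inhibition at 300 nmol/L.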

[1] = test system: MV4-11 subcutaneously transplanted tumor; test: Medicinal effect test, MV4-11-subcutaneously-transplanted cancer-bearing mouse models, oral administration; assay type: in vivo; details: orally, once per day, 14 days, BALB/c nu/nu mice
Experimental: The human acute myeloid leukemia cell line MV4-11 (ATCC) was suspended in a mixture of RPMI-1640 medium and Matrigel (Corning), and the obtained mixture was then subcutaneously transplanted into 6-week-old female BALB/c nu/nu mice (CLEA Japan, Inc.). After confirming that the average tumor volume exceeded 200 mm^3, a test compound was dissolved in a solvent (a 0.5% methyl cellulose aqueous solution or water containing 1 equivalent of hydrochloric acid), and the obtained solution was then orally administered to the mice at a daily dose of 10 to 30 mg/kg, once per day, for 14 days. As a negative control, a solvent administration group involving administration of a 0.5% methyl cellulose aqueous solution was established. The tumor diameter was measured on a daily basis, and the tumor volume was calculated. The tumor volume was calculated by measuring the major axis and minor axis of the tumor and then applying the following equation. Tumor volume (mm^3)=[major axis (mm)×minor axis (mm)×minor axis (mm)]/2
T/C (%) was calculated from the average tumor volume of each group according to the following equation, and medicinal effects were then evaluated. T/C(%)=[1−(average tumor volume of drug administration group)/(average tumor volume of solvent administration group)]×100%

BRD2 BD1 = target: T3, BRD2 BD1 (Homo sapiens, UniProt P25440); test: Binding assay, BRD2 BD1 to acetylated histone H4 Peptide-Biotin (EPIgeneous Binding Domain Kit A); details: for inhibition at 0.3 µM: test compound at 300 nmol/L, read-out: Binding inhibition percentage BRD2 BD1
T3 construct: BRD2 BD1, BRD3 BD1 and BRD4 BD1 (Cisbio); purchased Cisbio
T3 sequence (P25440 74-180 limits assumed): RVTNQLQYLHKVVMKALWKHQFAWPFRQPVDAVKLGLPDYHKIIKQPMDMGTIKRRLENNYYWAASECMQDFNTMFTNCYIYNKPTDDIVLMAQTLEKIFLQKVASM
How it was run: as §1

[2] = test system: human acute myeloid leukemia cell line MV4-11; test: Cell growth test (Cell Titer Glo) MV4-11; assay type: cell-based; details: 3 to 5 days
Source text: (§3) The human undifferentiated thymoma cell line Ty-82 (JCRB), the human acute myeloid leukemia cell lines MV4-11 (ATCC), MOLM-13 (ATCC) and RS4-11 (ATCC), the human lymphoma cell line Raji (JCRB), the human cervical epidermoid carcinoma cell line Hela (JCRB), the human lung adenocarcinoma cell line A549 (ATCC), the human colon cancer cell lines DLD1 (DS Pharma) and HCT116 (DS Pharma), and the human pancreatic cancer cell line MIAPACA-2 (ATCC) were used to carry out a cell growth test.
(§4) Ty-82, MV4-11, MOLM-13, RS4-11, Raji and DLD1 were each seeded in a well plate, in which Roswell Park Memorial Institute (RPMI)-1640 medium supplemented with penicillin/streptomycin and fetal bovine serum (FBS) with a final concentration of 10% was placed. Hela was seeded in Dulbecco's Modified Eagle's medium (DMEM) supplemented with penicillin/streptomycin and FBS with a final concentration of 10%. A549 and MIAPACA-2 were each seeded in a well plate, in which Minimum Essential Medium (MEM) supplemented with penicillin/streptomycin and FBS with a final concentration of 10% was placed. HCT116 was seeded in a well plate, in which McCoy's 5A medium supplemented with penicillin/streptomycin and FBS with a final concentration of 10% was placed.
(§5) Thereafter, a medium containing a test compound serially diluted with DMSO, or DMSO, was added to each well of the plate, in which the cells had been seeded, and the obtained mixture was then cultured under conditions of 37° C. and 5% CO2 for 3 to 5 days. Cell Titer Glo reaction solution (Promega) was added to the culture, and the amount of luminescence was then measured using Envision plate reader (PerkinElmer). Since the amount of luminescence is in proportion to the concentration of adenosine triphosphate (ATP) in cells, the amount of luminescence was used as an indicator of the number of living cells. The growth inhibition percentage of the test compound in each concentration was calculated according to the following equation. Growth inhibition percentage (%)=(amount of luminescence in test compound−added well)/(amount of luminescence in DMSO−added well)×100
(§6) The growth inhibition percentage of the test compound in each concentration was plotted by performing a non-linear regression analysis [(log (inhibitor) vs. response—Variable slope (four parameters)], using Graphpad prism 5, and a 50% growth inhibitory concentration [GI50 (nmol/L)] was then calculated.

BRD2 BD2 = target: T4, BRD2 BD2 (Homo sapiens, UniProt P25440); test: Binding assay, BRD2 BD2 to acetylated histone H4 Peptide-Biotin (EPIgeneous Binding Domain Kit B); details: for inhibition at 0.3 µM: test compound at 300 nmol/L, read-out: Binding inhibition percentage BRD2 BD2
T4 construct: BRD2 BD2, BRD3 BD2 and BRD4 BD2 (Cisbio); purchased Cisbio
T4 sequence (P25440 344-453 limits assumed): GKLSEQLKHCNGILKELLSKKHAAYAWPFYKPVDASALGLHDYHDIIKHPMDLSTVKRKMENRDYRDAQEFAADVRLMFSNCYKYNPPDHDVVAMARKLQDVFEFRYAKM
How it was run: as §2

BRD4 BD2 = target: T5, BRD4 BD2 (Homo sapiens, UniProt O60885); test: Binding assay, BRD4 BD2 to acetylated histone H4 Peptide-Biotin (EPIgeneous Binding Domain Kit B); details: for inhibition at 0.3 µM: test compound at 300 nmol/L, read-out: Binding inhibition percentage BRD4 BD2
T5 construct: BRD2 BD2, BRD3 BD2 and BRD4 BD2 (Cisbio); purchased Cisbio
How it was run: as §2

[3] = test system: human undifferentiated thymoma cell line Ty-82; test: Cell growth test (Cell Titer Glo) Ty-82; assay type: cell-based; details: TY82, 3 to 5 days
Source text: as §3, §4, §5, §6

[4] = test system: human acute myeloid leukemia cell line MOLM-13; test: Cell growth test (Cell Titer Glo) MOLM-13; assay type: cell-based; details: 3 to 5 days
Source text: as §3, §4, §5, §6

BRD3 BD1 = target: T6, BRD3 BD1 (Homo sapiens, UniProt Q15059); test: Binding assay, BRD3 BD1 to acetylated histone H4 Peptide-Biotin (EPIgeneous Binding Domain Kit A); details: for inhibition at 0.3 µM: test compound at 300 nmol/L, read-out: Binding inhibition percentage BRD3 BD1
T6 construct: BRD2 BD1, BRD3 BD1 and BRD4 BD1 (Cisbio); purchased Cisbio
T6 sequence (Q15059 34-140 limits assumed): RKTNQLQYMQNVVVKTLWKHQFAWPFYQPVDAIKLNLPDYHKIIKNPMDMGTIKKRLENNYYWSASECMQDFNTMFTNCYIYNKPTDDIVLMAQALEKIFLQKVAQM
How it was run: as §1

IC50 (BRD4 BD1) [nM] | inhibition at 0.3 µM (BRD4 BD1) [%] | IC50 (BRD3 BD2) [nM] | inhibition at 0.3 µM (BRD3 BD2) [%] | IC50 (BRD2 BD1) [nM] | inhibition at 0.3 µM (BRD2 BD1) [%] | GI50 [2] [nM] | IC50 (BRD2 BD2) [nM] | inhibition at 0.3 µM (BRD2 BD2) [%] | IC50 (BRD4 BD2) [nM] | inhibition at 0.3 µM (BRD4 BD2) [%] | GI50 [3] [nM] | GI50 [4] [nM] | IC50 (BRD3 BD1) [nM] | inhibition at 0.3 µM (BRD3 BD1) [%] | SMILES | T/C (%) ([1]; 10 mg/kg) | T/C (%) ([1]; 30 mg/kg)
40 | 67 | 12 | 90 | 144 | 34 | 16 | 18 | 82 | 7 | 84 | 17 | 43 | 91 | 55 | CCn1c(=O)cc(N2CCOCC2)c2cc(-n3c(-c4ccc(Cl)cc4)cn(C)c3=O)ccc21 [Example 246, 6-(5-(4-chlorophenyl)-3-methyl-2-oxo-2,3-dihydro-1H-imidazol-1-yl)-1-ethyl-4-(morpholin-4-yl)quinolin-2(1H)-one] | 13 | 33
– | 94 | – | 91 | – | 83 | 16 | – | 90 | – | 89 | 11 | 43 | – | 93 | CCn1c(=O)cc(N2CCOCC2)c2cc(-n3c(-c4ccccc4)cn(C(C)C)c3=O)ccc21 [Example 247, 1-ethyl-4-(morpholin-4-yl)-6-(2-oxo-5-phenyl-3-(propan-2-yl)-2,3-dihydro-1H-imidazol-1-yl)quinolin-2(1H)-one] | – | 33
